# Measured values as given in US20230233576A1, “ECLITASERTIB FOR USE IN TREATING CONDITIONS INVOLVING SYSTEMIC HYPERINFLAMMATORY RESPONSE” (priority 2020, published 2023).
# Read-outs that look alike come from different tables or passages of the source.
# How the values were obtained:
# [1] = system: adult participants hospitalized for severe COVID-19; experiment: Phase 1b severe COVID-19 study: clinical laboratory abnormalities (PCSA); type: in vivo, human; conditions: 600 mg (N = 47), TEAE period, safety population
# Protocol: Standard clinical laboratory parameters (hematology, blood chemistry) were measured per protocol.
# For laboratory parameters (hematology, clinical chemistry, and urinalysis), vital signs, and ECG, incidences of potentially clinically significant abnormality (PCSA) values, actual values and change from baseline were summarized by treatment group.
# For all laboratory, vital signs and ECG parameters, raw data and change from baseline were summarized in descriptive statistics by treatment group and scheduled time of measurement, with the exception of AST, ALT and alkaline phosphatase: instead of summarizing data in descriptive statistics, participants' profiles were presented through graphics by treatment group and with a color code to identify sites. The reason was that blood samples were processed by local laboratories with different normal ranges. For the rest of clinical laboratory these parameters it is reasonable to pool data as they are standard procedure and no significant differences in normal ranges were expected.
# [2] = Phase 1b severe COVID-19 study: pharmacokinetics (plasma concentrations, Bayesian population PK); type: in vivo, human; conditions: for AUC(0-t) / Cmax: human, oral, 300 mg
# Protocol: RIPK1 Inhibitor concentrations at selected time points over the two weeks of treatment were summarized by descriptive statistics. PK parameters such as Cmax, tmax, and AUC were calculated by a Bayesian analysis: the main results are presented in Section 5.2.
# Descriptive statistics on plasma concentration of RIPK1 Inhibitor were analyzed by the Sponsor's Biostatistics Department.
# Plasma concentrations of RIPK1 Inhibitor was listed and summarized by arithmetic mean, geometric mean, standard deviation (SD), standard error of the mean (SEM), coefficient of variance (%) (CV), minimum, median, maximum, and number of observations by timepoints. When applicable, relevant data were summarized by route: i.e., oral and oral gavage, and timepoints.
# The pharmacokinetic parameters in participants with severe COVID-19 were assessed by Bayesian analysis using a POP population PK model (P0H0757) developed in other Phase 1 studies.
# PK parameters were determined for 46 participants (one participant was excluded because all plasma concentrations were BLOQ). A summary of descriptive statistics on RIPK1 Inhibitor plasma AUC0-12, Cmax, and Ctrough over 2 weeks of treatment are presented in Table 43.
smiles,measurement,setting,value
"CN1C(=O)[C@@H](NC(=O)c2nnc(Cc3ccccc3)[nH]2)COc2cccnc21 [RIPK1 Inhibitor, (S)-5-benzyl-N-(5-methyl-4-oxo-2,3,4,5-tetrahydropyrido[3,2-b][1,4]oxazepin-3-yl)-4H-1,2,4-triazole-3-carboxamide]",PCSA Glucose ≥11.1 mmol/L (unfasted); ≥7 mmol/L (fasted),[1]; missing baseline,3/3
same,PCSA Total Bilirubin >1.5 ULN,[1]; missing baseline,0/0
same,PCSA Total Bilirubin >2 ULN,[1]; missing baseline,0/0
same,PCSA Alanine Aminotransferase (ALT) >3 ULN,[1]; normal baseline,2/27
same,PCSA Alanine Aminotransferase (ALT) >5 ULN,[1]; normal baseline,1/27
same,PCSA Alanine Aminotransferase (ALT) >10 ULN,[1]; normal baseline,0/27
same,PCSA Alanine Aminotransferase (ALT) >20 ULN,[1]; normal baseline,0/27
same,PCSA Albumin ≤25 g/L,[1]; normal baseline,0/18
same,PCSA Alkaline Phosphatase >1.5 ULN,[1]; normal baseline,2/46
same,PCSA Aspartate Aminotransferase (AST) >3 ULN,[1]; normal baseline,1/23
same,PCSA Aspartate Aminotransferase (AST) >5 ULN,[1]; normal baseline,1/23
same,PCSA Aspartate Aminotransferase (AST) >10 ULN,[1]; normal baseline,0/23
same,PCSA Basophils >0.1 * 10^9/L,[1]; normal baseline,3/29
same,PCSA C-Reactive Protein >2 ULN or >10 mg/L (if ULN not provided),[1]; normal baseline,0/1
same,PCSA Conjugated bilirubin >35% Bilirubin and Bilirubin >1.5 ULN,[1]; normal baseline,0/46
same,PCSA Creatinine Clearance (CG) <15 mL/min (end stage renal disease),[1]; normal baseline,0/29
same,PCSA Creatinine Clearance (CG) ≥15-<30 mL/min (severe decrease in GFR),[1]; normal baseline,0/29
same,PCSA Creatinine Clearance (CG) ≥30-<60 mL/min (moderate decrease in GFR),[1]; normal baseline,0/29
same,PCSA Creatinine Clearance (CG) ≥60-<90 mL/min (mild decrease in GFR),[1]; normal baseline,5/29
same,PCSA Creatinine ≥150 μmol/L (Adults),[1]; normal baseline,0/39
same,PCSA Eosinophils >0.5 * 10^9/L or >ULN (if ULN ≥ 0.5 * 10^9/L),[1]; normal baseline,1/20
same,PCSA Erythrocyte Count (RBC) ≥6 * 10^12/L,[1]; normal baseline,0/30
same,PCSA Glucose ≤3.9 mmol/L and <LLN,[1]; normal baseline,1/10
same,PCSA Glucose ≥11.1 mmol/L (unfasted); ≥7 mmol/L (fasted),[1]; normal baseline,5/10
same,PCSA Hematocrit ≤0.37 v/v (Male); ≤0.32 v/v (Female),[1]; normal baseline,4/30
same,PCSA Hematocrit ≥0.55 v/v (Male); ≥0.5 v/v (Female),[1]; normal baseline,0/30
same,PCSA Hemoglobin ≤115 g/L (Male); ≤95 g/L (Female),[1]; normal baseline,1/29
same,PCSA Hemoglobin ≥185 g/L (Male); ≥165 g/L (Female),[1]; normal baseline,0/29
same,PCSA Lymphocytes >4 * 10^9/L,[1]; normal baseline,3/18
same,PCSA Monocytes >0.7 * 10^9/L,[1]; normal baseline,12/19
same,PCSA Neutrophils <1.5 * 10^9/L (Non-Black); <1 * 10^9/L (Black),[1]; normal baseline,2/21
same,PCSA Platelet Count <100 * 10^9/L,[1]; normal baseline,0/36
same,PCSA Platelet Count ≥700 * 10^9/L,[1]; normal baseline,0/36
same,PCSA Potassium <3 mmol/L,[1]; normal baseline,0/40
same,PCSA Potassium ≥5.5 mmol/L,[1]; normal baseline,4/40
same,PCSA Sodium ≤129 mmol/L,[1]; normal baseline,1/39
same,PCSA Sodium ≥160 mmol/L,[1]; normal baseline,0/39
same,PCSA Total Bilirubin >1.5 ULN,[1]; normal baseline,1/45
same,PCSA Total Bilirubin >2 ULN,[1]; normal baseline,0/45
same,PCSA White blood cell count <3 * 10^9/L (Non-Black); <2 * 10^9/L (Black),[1]; normal baseline,1/37
same,PCSA White blood cell count ≥16 * 10^9/L,[1]; normal baseline,2/37
same,steady state reached on,"[2]; 300 mg BID for up to 14 days, severe COVID-19",3 days
same,exposure difference between male and female,"[2]; 300 mg BID, severe COVID-19",No obvious exposure difference
same,higher AUC0-12h in patients<85.6 kg as compared to ≥85.6 kg,"[2]; 300 mg BID, severe COVID-19",14%
same,"Ctrough, mean (SD)","[2]; 300 mg BID, steady state (Day 3), plasma, severe COVID-19, Bayesian population PK",2025 (783) ng/mL
same,Ctrough,"[2]; Day 1 (n = 46), Mean (SD), 300 mg BID, plasma, participants with severe COVID-19, Bayesian population PK analysis",1457 (442) ng/mL
same,Ctrough,"[2]; Day 3 (n = 42), Mean (SD), 300 mg BID, plasma, participants with severe COVID-19, Bayesian population PK analysis",2025 (783) ng/mL
same,Ctrough,"[2]; Day 7 (n = 26), Mean (SD), 300 mg BID, plasma, participants with severe COVID-19, Bayesian population PK analysis",2142 (838) ng/mL
same,Ctrough,"[2]; Day 14 (n = 10), Mean (SD), 300 mg BID, plasma, participants with severe COVID-19, Bayesian population PK analysis",2524 (875) ng/mL
same,AUC(0-t),"[2]; plasma, 300 mg BID, steady state (Day 3), plasma, severe COVID-19, Bayesian population PK, read-out: AUC0-12h, mean (SD)",42200 ng·h/mL
same,Cmax,"[2]; plasma, 300 mg BID, steady state (Day 3), plasma, severe COVID-19, Bayesian population PK, read-out: Cmax, mean (SD)",5170 ng/mL
same,AUC(0-t),"[2]; plasma, Day 1 (n = 46), Mean (SD), 300 mg BID, plasma, participants with severe COVID-19, Bayesian population PK analysis, read-out: AUC0-12",28200 ng·h/mL
same,Cmax,"[2]; plasma, Day 1 (n = 46), Mean (SD), 300 mg BID, plasma, participants with severe COVID-19, Bayesian population PK analysis, read-out: Cmax",3680 ng/mL
same,AUC(0-t),"[2]; plasma, Day 3 (n = 42), Mean (SD), 300 mg BID, plasma, participants with severe COVID-19, Bayesian population PK analysis, read-out: AUC0-12",42200 ng·h/mL
same,Cmax,"[2]; plasma, Day 3 (n = 42), Mean (SD), 300 mg BID, plasma, participants with severe COVID-19, Bayesian population PK analysis, read-out: Cmax",5170 ng/mL
same,AUC(0-t),"[2]; plasma, Day 7 (n = 26), Mean (SD), 300 mg BID, plasma, participants with severe COVID-19, Bayesian population PK analysis, read-out: AUC0-12",43800 ng·h/mL
same,Cmax,"[2]; plasma, Day 7 (n = 26), Mean (SD), 300 mg BID, plasma, participants with severe COVID-19, Bayesian population PK analysis, read-out: Cmax",5340 ng/mL
same,AUC(0-t),"[2]; plasma, Day 14 (n = 10), Mean (SD), 300 mg BID, plasma, participants with severe COVID-19, Bayesian population PK analysis, read-out: AUC0-12",48400 ng·h/mL
same,Cmax,"[2]; plasma, Day 14 (n = 10), Mean (SD), 300 mg BID, plasma, participants with severe COVID-19, Bayesian population PK analysis, read-out: Cmax",5630 ng/mL
